Source: the supplement of paper PMC10307832

Assays:
Assay in all cases: relative viability (nuclei count vs DMSO), 5 days (fraction); higher = more cells survive
[1] = compound: C1=CC=C2C(=C1)N=C(S2)C(C#N)C3=NC(=NC=C3)NCCC4=CN=CC=C4 + Cc1nc(NC(=O)N2CCC[C@H]2C(N)=O)sc1-c1ccnc(C(C)(C)C(F)(F)F)c1 [Alpelisib] (partner 2 µM)
How it was run: (§1)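 Lung cancer cell lines in 1536-well plates were dosed by pin tool the day after seeding, either with one drug alone or with a fixed anchor-drug dose plus five library-drug doses (not always all listed) in √10 steps. After 5 days, cells were fixed and their nuclei stained in one step (final 0.05% Triton X-100, 1% formaldehyde, 1 ug/ml Hoechst), then counted on 4× images. Relative viability is the nuclei count in treated wells divided by that in vehicle wells. Values are medians of duplicate plates.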

CUDC-101 + Lapatinib = compound: C#Cc1cccc(Nc2ncnc3cc(OC)c(OCCCCCCC(=O)NO)cc23)c1 [CUDC-101] + CS(=O)(=O)CCNCc1ccc(-c2ccc3ncnc(Nc4ccc(OCc5cccc(F)c5)c(Cl)c4)c3c2)o1 [Lapatinib] (partner 2 µM)
How it was run: as §1

NVP-TAE684 + Decitabine = compound: COc1cc(N2CCC(N3CCN(C)CC3)CC2)ccc1Nc1ncc(Cl)c(Nc2ccccc2S(=O)(=O)C(C)C)n1 [NVP-TAE684] + Nc1ncn([C@H]2C[C@H](O)[C@@H](CO)O2)c(=O)n1 [Decitabine] (partner 2 µM)
How it was run: as §1

[2] = compound: C1=CC=C2C(=C1)N=C(S2)C(C#N)C3=NC(=NC=C3)NCCC4=CN=CC=C4 + Nc1ncn([C@H]2C[C@H](O)[C@@H](CO)O2)c(=O)n1 [Decitabine] (partner 2 µM)
How it was run: as §1

LK-2
relative viability ([1]; first compound 0.05 µM): 0.993
relative viability ([1]; first compound 0.1581 µM): 1.3
relative viability ([1]; first compound 0.5 µM): 1.11
relative viability (CUDC-101 + Lapatinib; first compound 0.01 µM): 0.981
relative viability (CUDC-101 + Lapatinib; first compound 0.03162 µM): 0.888
relative viability (CUDC-101 + Lapatinib; first compound 0.1 µM): 0.973
relative viability (CUDC-101 + Lapatinib; first compound 0.3162 µM): 0.887
relative viability (CUDC-101 + Lapatinib; first compound 1 µM): 0.559
relative viability (NVP-TAE684 + Decitabine; first compound 0.2 µM): 0.24
relative viability (NVP-TAE684 + Decitabine; first compound 0.6325 µM): 0.205
relative viability (NVP-TAE684 + Decitabine; first compound 2 µM): 0.146
relative viability ([2]; first compound 0.005 µM): 0.27
relative viability ([2]; first compound 0.01581 µM): 0.288
relative viability ([2]; first compound 0.05 µM): 0.39
relative viability ([2]; first compound 0.1581 µM): 0.352
relative viability ([2]; first compound 0.5 µM): 0.352

SW 1573
relative viability ([1]; first compound 0.005 µM): 0.628
relative viability ([1]; first compound 0.01581 µM): 0.726
relative viability ([1]; first compound 0.1581 µM): 0.803
relative viability ([1]; first compound 0.5 µM): 0.686
relative viability (CUDC-101 + Lapatinib; first compound 0.01 µM): 1.05
relative viability (CUDC-101 + Lapatinib; first compound 0.03162 µM): 1.15
relative viability (CUDC-101 + Lapatinib; first compound 0.1 µM): 1.23
relative viability (CUDC-101 + Lapatinib; first compound 0.3162 µM): 1.2
relative viability (CUDC-101 + Lapatinib; first compound 1 µM): 0.813
relative viability (NVP-TAE684 + Decitabine; first compound 0.2 µM): 0.526
relative viability (NVP-TAE684 + Decitabine; first compound 0.6325 µM): 0.497
relative viability (NVP-TAE684 + Decitabine; first compound 2 µM): 0.104
relative viability ([2]; first compound 0.005 µM): 0.36
relative viability ([2]; first compound 0.01581 µM): 0.497
relative viability ([2]; first compound 0.05 µM): 0.252
relative viability ([2]; first compound 0.1581 µM): 0.436
relative viability ([2]; first compound 0.5 µM): 0.504

LU99A
relative viability ([1]; first compound 0.005 µM): 0.509
relative viability ([1]; first compound 0.01581 µM): 0.545
relative viability ([1]; first compound 0.05 µM): 0.522
relative viability ([1]; first compound 0.1581 µM): 0.548
relative viability ([1]; first compound 0.5 µM): 0.536
relative viability (CUDC-101 + Lapatinib; first compound 0.01 µM): 1.2
relative viability (CUDC-101 + Lapatinib; first compound 0.03162 µM): 0.889
relative viability (CUDC-101 + Lapatinib; first compound 0.1 µM): 0.987
relative viability (CUDC-101 + Lapatinib; first compound 0.3162 µM): 0.861
relative viability (CUDC-101 + Lapatinib; first compound 1 µM): 0.321
relative viability (NVP-TAE684 + Decitabine; first compound 0.2 µM): 0.97
relative viability (NVP-TAE684 + Decitabine; first compound 2 µM): 0.496
relative viability ([2]; first compound 0.005 µM): 0.693
relative viability ([2]; first compound 0.01581 µM): 0.966
relative viability ([2]; first compound 0.1581 µM): 1
relative viability ([2]; first compound 0.5 µM): 0.817

NCI-H322M
relative viability ([1]; first compound 0.005 µM): 0.825
relative viability ([1]; first compound 0.01581 µM): 0.77
relative viability ([1]; first compound 0.05 µM): 0.68
relative viability ([1]; first compound 0.1581 µM): 0.899
relative viability ([1]; first compound 0.5 µM): 0.709
relative viability (CUDC-101 + Lapatinib; first compound 0.01 µM): 0.618
relative viability (CUDC-101 + Lapatinib; first compound 0.03162 µM): 0.648
relative viability (CUDC-101 + Lapatinib; first compound 0.1 µM): 0.521
relative viability (CUDC-101 + Lapatinib; first compound 0.3162 µM): 0.575
relative viability (CUDC-101 + Lapatinib; first compound 1 µM): 0.603
relative viability (NVP-TAE684 + Decitabine; first compound 0.2 µM): 0.658
relative viability (NVP-TAE684 + Decitabine; first compound 0.6325 µM): 0.619
relative viability (NVP-TAE684 + Decitabine; first compound 2 µM): 0.526
relative viability ([2]; first compound 0.005 µM): 0.579
relative viability ([2]; first compound 0.01581 µM): 0.773
relative viability ([2]; first compound 0.05 µM): 0.775
relative viability ([2]; first compound 0.1581 µM): 0.711
relative viability ([2]; first compound 0.5 µM): 0.736

COR-L23
relative viability ([1]; first compound 0.005 µM): 0.748
relative viability ([1]; first compound 0.01581 µM): 0.756
relative viability ([1]; first compound 0.05 µM): 0.841
relative viability ([1]; first compound 0.1581 µM): 0.877
relative viability ([1]; first compound 0.5 µM): 0.742
relative viability (CUDC-101 + Lapatinib; first compound 0.01 µM): 1.02
relative viability (CUDC-101 + Lapatinib; first compound 0.03162 µM): 1.02
relative viability (CUDC-101 + Lapatinib; first compound 0.1 µM): 0.889
relative viability (CUDC-101 + Lapatinib; first compound 0.3162 µM): 1.1
relative viability (CUDC-101 + Lapatinib; first compound 1 µM): 0.449
relative viability (NVP-TAE684 + Decitabine; first compound 0.2 µM): 0.415
relative viability (NVP-TAE684 + Decitabine; first compound 0.6325 µM): 0.339
relative viability (NVP-TAE684 + Decitabine; first compound 2 µM): 0.252
relative viability ([2]; first compound 0.005 µM): 0.439
relative viability ([2]; first compound 0.01581 µM): 0.45
relative viability ([2]; first compound 0.05 µM): 0.415
relative viability ([2]; first compound 0.1581 µM): 0.472
relative viability ([2]; first compound 0.5 µM): 0.424

NCI-H1793
relative viability ([1]; first compound 0.005 µM): 0.692
relative viability ([1]; first compound 0.01581 µM): 0.521
relative viability ([1]; first compound 0.05 µM): 0.55
relative viability ([1]; first compound 0.1581 µM): 0.763
relative viability ([1]; first compound 0.5 µM): 0.739
relative viability (CUDC-101 + Lapatinib; first compound 0.01 µM): 0.813
relative viability (CUDC-101 + Lapatinib; first compound 0.03162 µM): 0.63
relative viability (CUDC-101 + Lapatinib; first compound 0.1 µM): 0.731
relative viability (CUDC-101 + Lapatinib; first compound 0.3162 µM): 0.718
relative viability (CUDC-101 + Lapatinib; first compound 1 µM): 0.485
relative viability (NVP-TAE684 + Decitabine; first compound 0.2 µM): 0.459
relative viability (NVP-TAE684 + Decitabine; first compound 0.6325 µM): 0.468
relative viability (NVP-TAE684 + Decitabine; first compound 2 µM): 0.361
relative viability ([2]; first compound 0.01581 µM): 0.521
relative viability ([2]; first compound 0.05 µM): 0.424
relative viability ([2]; first compound 0.1581 µM): 0.538
relative viability ([2]; first compound 0.5 µM): 0.465

HARA
relative viability ([1]; first compound 0.005 µM): 0.794
relative viability ([1]; first compound 0.01581 µM): 0.794
relative viability ([1]; first compound 0.05 µM): 0.744
relative viability ([1]; first compound 0.1581 µM): 0.893
relative viability ([1]; first compound 0.5 µM): 0.838
relative viability (CUDC-101 + Lapatinib; first compound 0.01 µM): 0.739
relative viability (CUDC-101 + Lapatinib; first compound 0.03162 µM): 0.789
relative viability (CUDC-101 + Lapatinib; first compound 0.1 µM): 0.739
relative viability (CUDC-101 + Lapatinib; first compound 0.3162 µM): 0.71
relative viability (CUDC-101 + Lapatinib; first compound 1 µM): 0.453
relative viability (NVP-TAE684 + Decitabine; first compound 0.2 µM): 0.664
relative viability (NVP-TAE684 + Decitabine; first compound 0.6325 µM): 0.55
relative viability (NVP-TAE684 + Decitabine; first compound 2 µM): 0.234
relative viability ([2]; first compound 0.005 µM): 0.7
relative viability ([2]; first compound 0.01581 µM): 0.574
relative viability ([2]; first compound 0.05 µM): 0.634
relative viability ([2]; first compound 0.1581 µM): 0.538
relative viability ([2]; first compound 0.5 µM): 0.584

LXF-289
relative viability ([1]; first compound 0.005 µM): 0.979
relative viability ([1]; first compound 0.01581 µM): 1.15
relative viability ([1]; first compound 0.05 µM): 1.04
relative viability ([1]; first compound 0.1581 µM): 1.12
relative viability ([1]; first compound 0.5 µM): 0.998
relative viability (CUDC-101 + Lapatinib; first compound 0.01 µM): 0.895
relative viability (CUDC-101 + Lapatinib; first compound 0.03162 µM): 0.915
relative viability (CUDC-101 + Lapatinib; first compound 0.1 µM): 0.97
relative viability (CUDC-101 + Lapatinib; first compound 0.3162 µM): 0.915
relative viability (CUDC-101 + Lapatinib; first compound 1 µM): 0.694
relative viability (NVP-TAE684 + Decitabine; first compound 0.2 µM): 0.433
relative viability (NVP-TAE684 + Decitabine; first compound 0.6325 µM): 0.384
relative viability (NVP-TAE684 + Decitabine; first compound 2 µM): 0.267
relative viability ([2]; first compound 0.005 µM): 0.345
relative viability ([2]; first compound 0.01581 µM): 0.419
relative viability ([2]; first compound 0.05 µM): 0.4
relative viability ([2]; first compound 0.1581 µM): 0.405
relative viability ([2]; first compound 0.5 µM): 0.336

201T
relative viability ([1]; first compound 0.005 µM): 0.995
relative viability ([1]; first compound 0.01581 µM): 1.08
relative viability ([1]; first compound 0.05 µM): 1.04
relative viability ([1]; first compound 0.1581 µM): 1.03
relative viability ([1]; first compound 0.5 µM): 0.967
relative viability (CUDC-101 + Lapatinib; first compound 0.01 µM): 1.03
relative viability (CUDC-101 + Lapatinib; first compound 0.03162 µM): 1.02
relative viability (CUDC-101 + Lapatinib; first compound 0.1 µM): 0.943
relative viability (CUDC-101 + Lapatinib; first compound 0.3162 µM): 1.08
relative viability (CUDC-101 + Lapatinib; first compound 1 µM): 0.872
relative viability (NVP-TAE684 + Decitabine; first compound 0.6325 µM): 0.867
relative viability (NVP-TAE684 + Decitabine; first compound 2 µM): 0.684
relative viability ([2]; first compound 0.005 µM): 0.772
relative viability ([2]; first compound 0.01581 µM): 0.91
relative viability ([2]; first compound 0.05 µM): 0.868
relative viability ([2]; first compound 0.1581 µM): 0.833
relative viability ([2]; first compound 0.5 µM): 0.911
